28 molecules from PubChem BioAssay (NCI) can be followed below.

“And” between values parts separate entries of the source, which are not always exact repeats. Equal values may be shown once.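 Test compounds were applied to cells in 96-well plates for 48 hours at 5 doses. GI50 is the concentration that inhibits growth by half. TGI marks complete inhibition of growth.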 Where only a bound is given, the exact number is not on record here.

The subject of one assay is SF-539 CNS. Description: growth of human tumour cells (NCI), 48 h.
`CCOP(=O)(OCC)OC1CC(n2cc(C)c(=O)n(C)c2=O)OC1CO[Si](C)(C)C(C)(C)C` (stereo not drawn) registered a TGI above 100 µM.
In turn, `COc1cc(C(O)c2ccc3c(c2)OCO3)cc(OC)c1OC` (stereo not drawn) returned a TGI above 100 µM.
Still for that read-out and setting: with `Cc1cc(C)nc(NS(=O)(=O)c2ccc(NC(=O)c3cccc4c(NNc5ccc(S(=O)(=O)N=C(N)N)cc5)c5ccccc5nc34)cc2)n1` the figure was above 50 µM; with `CCOC(=O)c1sc2ncnc(N)c2c1C`, above 100 µM.
The same measure, in the same setting: with `COc1cccc2c1OCC1Cc3ccccc3OC21` (stereo not drawn) the figure was above 100 µM.
On to `C=CCN1C(=O)/C(=C/c2ccc(C)cc2)N=C1SC1OC(COC(C)=O)C(OC(C)=O)C(OC(C)=O)C1OC(C)=O` (stereo not drawn), for which the GI50 is 16.7 µM and 41.6 µM; the TGI is above 100 µM.
Molecule `O=C1CS(=O)(=O)C(c2cccc(Oc3ccccc3)c2)N1c1cc(Cl)ccc1Cl` (stereo not drawn) came in with a TGI of 44.6 µM.
`COc1ccc(OC)c2sc(N3C(=O)/C(=C/c4cccc([N+](=O)[O-])c4)N=C3c3ccccc3)nc12` yielded a TGI above 100 µM.
As for `Cc1cccc(/C(Br)=C2/OC(=O)c3ccccc32)c1`, the TGI was above 100 µM.
Still for that read-out and setting: with `O=[N+]([O-])c1cc(Cl)ccc1Sc1ccccc1` the figure was above 100 µM; with `CC1(C)OC2COC3([C@@H]4OC(C)(C)O[C@@H]4CO)OC(C)(C)OC3C2O1` (stereo partly drawn), above 100 µM.
Molecule `COP(=O)(OC)C(Nc1ccc(Cc2ccc(NC(c3ccco3)P(=O)(OC)OC)cc2)cc1)c1ccco1` (stereo not drawn) yielded a TGI of 16.2 µM.
Molecule `COc1ccc(C2c3cc4c(cc3OC(NCCO)C2C)OCO4)cc1` (stereo not drawn) came in with a TGI of 40.5 µM.
Turning to `COC(=O)[C@H](Cc1ccccc1)NC(=O)N(CCC#N)CCN(C(=O)N[C@@H](Cc1ccccc1)C(=O)OC)c1ccccc1`, the TGI was 41.1 µM.
On the same count and under the same terms, for `CN(C)CCCNC(=O)c1c(O)c2ccccc2n(C)c1=O` the value was above 100 µM; for `O=[N+]([O-])/C(Cl)=C(\NCCN/C(C(Cl)=C(Cl)Cl)=C(/Cl)[N+](=O)[O-])C(Cl)=C(Cl)Cl`, above 100 µM.
For `Cc1cc(O)c(-c2cc(O)c(C)cc2O)cc1O`, the TGI was 9.35 µM.
In the case of `Cc1ccc(NC(=O)/C(Cc2nc3ccc([N+](=O)[O-])cc3[nH]c2=O)=N\NC(=O)C[n+]2ccccc2)c(C)c1`, the TGI was above 100 µM.
The molecule `CC1(C)N=C2C(=O)c3c([nH]c4ccccc34)[C@]3(C)CCC1CC23` (stereo partly drawn) came in with a TGI above 6.25 µM.
On the same count and under the same terms, for `CCN1C(=O)C(=C/C=C/c2ccc(N(CC)CC)cc2)C(=O)N(CC)C1=S` the value was above 100 µM.
As to `COc1ccc(NC(C)c2ccncc2)cc1` (stereo not drawn), the TGI was above 100 µM.
As for `O=C1C=CC(=O)C(CNc2ccc(C(=O)OCc3ccccc3)cc2)=C1`, the TGI is 7.29 µM.
Still for that read-out and setting: with `CC1=NNC(=O)C1C1CC(c2c[nH]c3ccccc23)=NN=C1Cl` (stereo not drawn) the figure was above 100 µM.
The molecule `COc1ccc2c(c1)c(=O)c1c(NCCNCCO)ccc3c(=O)n(CCN(C)C)c(=O)n2c31` showed a TGI of 0.612 µM.
`CCOC(=O)C1=CC(C)(C(=O)OCC)Nc2c(nc(N)[nH]c2=O)N1` (stereo not drawn) came in with a TGI above 10 µM.

The subject of the next assay is UO-31 renal. In words: growth of human tumour cells (NCI), 48 h.
In the case of `COc1cc2[nH]c(-c3ccccc3)cc(=O)c2c(OC)c1OC`, the TGI is above 100 µM.
Consider `CCOP(=O)(OCC)OC1CC(n2cc(C)c(=O)n(C)c2=O)OC1CO[Si](C)(C)C(C)(C)C` (stereo not drawn), for which the TGI was determined as 7.15 µM.
As to `CCOC(=O)c1c(SCCN2CCOCC2)n(-c2ccccc2)c(=S)n(-c2ccccc2)c1=O`, the TGI is above 100 µM.
Take `COc1cc(C(O)c2ccc3c(c2)OCO3)cc(OC)c1OC` (stereo not drawn): the TGI was above 100 µM.
In turn, `Cc1cc(C)nc(NS(=O)(=O)c2ccc(NC(=O)c3cccc4c(NNc5ccc(S(=O)(=O)N=C(N)N)cc5)c5ccccc5nc34)cc2)n1` came in with a TGI above 50 µM.
The molecule `CCOC(=O)c1sc2ncnc(N)c2c1C` yielded a TGI above 100 µM.
For the molecule `COc1cccc2c1OCC1Cc3ccccc3OC21` (stereo not drawn), the TGI is above 100 µM.
On to `O=C1CS(=O)(=O)C(c2cccc(Oc3ccccc3)c2)N1c1cc(Cl)ccc1Cl` (stereo not drawn), for which the TGI amounted to 43.7 µM.
Turning to `COc1ccc(OC)c2sc(N3C(=O)/C(=C/c4cccc([N+](=O)[O-])c4)N=C3c3ccccc3)nc12`, the TGI is above 100 µM.
For the molecule `O=[N+]([O-])c1cc(Cl)ccc1Sc1ccccc1`, the TGI is above 100 µM.
Still for that read-out and setting: for `CC1(C)OC2COC3([C@@H]4OC(C)(C)O[C@@H]4CO)OC(C)(C)OC3C2O1` (stereo partly drawn) the value was above 100 µM.
As to `COP(=O)(OC)C(Nc1ccc(Cc2ccc(NC(c3ccco3)P(=O)(OC)OC)cc2)cc1)c1ccco1` (stereo not drawn), the TGI was above 100 µM.
`COc1ccc(C2c3cc4c(cc3OC(NCCO)C2C)OCO4)cc1` (stereo not drawn) showed a TGI of 76.8 µM.
In turn, `COC(=O)[C@H](Cc1ccccc1)NC(=O)N(CCC#N)CCN(C(=O)N[C@@H](Cc1ccccc1)C(=O)OC)c1ccccc1` registered a TGI of 31.9 µM.
Regarding `CN(C)CCCNC(=O)c1c(O)c2ccccc2n(C)c1=O`, the TGI is above 100 µM.
On the same count and under the same terms, with `O=[N+]([O-])/C(Cl)=C(\NCCN/C(C(Cl)=C(Cl)Cl)=C(/Cl)[N+](=O)[O-])C(Cl)=C(Cl)Cl` the figure was above 100 µM; with `Cc1cc(O)c(-c2cc(O)c(C)cc2O)cc1O`, 5.4 µM.
On the same count and under the same terms, for `Cc1ccc(NC(=O)/C(Cc2nc3ccc([N+](=O)[O-])cc3[nH]c2=O)=N\NC(=O)C[n+]2ccccc2)c(C)c1` the value was 41.1 µM.
Same read-out and setting: for `CC1(C)N=C2C(=O)c3c([nH]c4ccccc34)[C@]3(C)CCC1CC23` (stereo partly drawn) the value was above 6.25 µM; for `CCN1C(=O)C(=C/C=C/c2ccc(N(CC)CC)cc2)C(=O)N(CC)C1=S`, above 100 µM.
Consider `COc1ccc(NC(C)c2ccncc2)cc1` (stereo not drawn), for which the TGI is above 100 µM.
Still for that read-out and setting: with `O=C1C=CC(=O)C(CNc2ccc(C(=O)OCc3ccccc3)cc2)=C1` the figure was 7.49 µM; with `CC1=NNC(=O)C1C1CC(c2c[nH]c3ccccc23)=NN=C1Cl` (stereo not drawn), above 100 µM; with `COc1ccc2c(c1)c(=O)c1c(NCCNCCO)ccc3c(=O)n(CCN(C)C)c(=O)n2c31`, 1.61 µM.
On the same count and under the same terms, with `CCOC(=O)C1=CC(C)(C(=O)OCC)Nc2c(nc(N)[nH]c2=O)N1` (stereo not drawn) the figure was above 10 µM; with `c1ccc(C2CC(=NC3CCCCC3)Nc3ccccc3N2)cc1` (stereo not drawn), above 100 µM.

A further assay has as its system 786-0 renal. In words: growth of human tumour cells (NCI), 48 h.
As for `COc1cc2[nH]c(-c3ccccc3)cc(=O)c2c(OC)c1OC`, the TGI was above 100 µM.
The same measure, in the same setting: with `CCOP(=O)(OCC)OC1CC(n2cc(C)c(=O)n(C)c2=O)OC1CO[Si](C)(C)C(C)(C)C` (stereo not drawn) the figure was above 100 µM; with `CCOC(=O)c1c(SCCN2CCOCC2)n(-c2ccccc2)c(=S)n(-c2ccccc2)c1=O`, 46 µM.
Still for that read-out and setting: for `COc1cc(C(O)c2ccc3c(c2)OCO3)cc(OC)c1OC` (stereo not drawn) the value was above 100 µM; for `Cc1cc(C)nc(NS(=O)(=O)c2ccc(NC(=O)c3cccc4c(NNc5ccc(S(=O)(=O)N=C(N)N)cc5)c5ccccc5nc34)cc2)n1`, above 50 µM; for `CCOC(=O)c1sc2ncnc(N)c2c1C`, above 100 µM.
Turning to `COc1cccc2c1OCC1Cc3ccccc3OC21` (stereo not drawn), the TGI is above 100 µM.
In turn, `C=CCN1C(=O)/C(=C/c2ccc(C)cc2)N=C1SC1OC(COC(C)=O)C(OC(C)=O)C(OC(C)=O)C1OC(C)=O` (stereo not drawn) showed a TGI above 100 µM.
For `O=C1CS(=O)(=O)C(c2cccc(Oc3ccccc3)c2)N1c1cc(Cl)ccc1Cl` (stereo not drawn), the TGI is 34.8 µM.
`COc1ccc(OC)c2sc(N3C(=O)/C(=C/c4cccc([N+](=O)[O-])c4)N=C3c3ccccc3)nc12` returned a TGI above 100 µM.
Molecule `Cc1cccc(/C(Br)=C2/OC(=O)c3ccccc32)c1` came in with a TGI above 100 µM.
